Experimental data from ChEMBL document CHEMBL3994634, “Synthesis of new chromeno-carbamodithioate derivatives and preliminary evaluation of their antioxidant activity and molecular docking studies” (Bioorg Med Chem Lett, 2017).

Assays:
[1] = Antioxidant activity assessed as […] radical scavenging activity by spectrophotometric method relative to control; type: functional; set-up: concentration or dose not given beside the values
[2] = Antioxidant activity assessed as inhibition of […] radical by spectrophotometric method; type: functional

| IC50 [2] [mM] | SMILES | Activity [1] [%] |
| --- | --- | --- |
| 2.04 | Cc1oc2cc(OCC(O)CSC(=S)N3CCN(c4ccc(F)cc4)CC3)ccc2c(=O)c1C (stereo not given) | 24.8 |
| 1.38 | Cc1oc2cc(OCC(O)CSC(=S)N3CCN(Cc4ccc5c(c4)OCO5)CC3)ccc2c(=O)c1C (stereo not given) | 36.8 |
| 1.62 | Cc1oc2cc(OCC(O)CSC(=S)N3CCN(C(c4ccccc4)c4ccccc4)CC3)ccc2c(=O)c1C (stereo not given) | 30.9 |
| 1.57 | Cc1oc2cc(OCC(O)CSC(=S)N3CCC(Cc4ccccc4)CC3)ccc2c(=O)c1C (stereo not given) | 31.8 |
| 1.59 | COc1ccccc1N1CCN(C(=S)SCC(O)COc2ccc3c(=O)c(C)c(C)oc3c2)CC1 (stereo not given) | 31.6 |
| 1.71 | CCN(CC)C(=S)SCC(O)COc1ccc2c(=O)c(C)c(C)oc2c1 (stereo not given) | 29.5 |
| 1.41 | Cc1oc2cc(OCC(O)CSC(=S)N3CCOCC3)ccc2c(=O)c1C (stereo not given) | 35.6 |
| 2.24 | Cc1oc2cc(OCC(O)CSC(=S)N3CCN(c4ccccc4)CC3)ccc2c(=O)c1C (stereo not given) | 24.8 |
| 1.64 | O=C1O[C@H]([C@@H](O)CO)C(O)=C1O [ASCORBIC ACID] | 30.4 |
| 1.72 | Cc1oc2cc(OCC(O)CSC(=S)N3CCN(C)CC3)ccc2c(=O)c1C (stereo not given) | 29.4 |
